Measured values published in patent US7091158B2, “Substituted thienyl(amino)sulphonylureas” (Bayer Aktiengesellschaft, priority 1999, dated 2006).
Values belong to the compound of their own block, whether it stands above or below them.

Key:
weeds [1] = experiment: Pre-emergence test, activity against weeds; type: in vivo
Description: (§1) To produce a suitable preparation of active compound, 1 part by weight of active compound is mixed with the stated amount of solvent, the stated amount of emulsifier is added and the concentrate is diluted with water to the desired concentration.
(§2) Seeds of the test plants are sown in normal soil. After about 24 hours, the soil is sprayed with the preparation of active compound such that the particular amount of active compound desired is applied per unit area. The concentration of the spray liquor is chosen so that the particular amount of active compound desired is applied in 1000 litres of water per hectare.
(§3) After three weeks, the degree of damage to the plants is rated in % damage in comparison to the development of the untreated control.
(§4) The figures denote: • 0%=no effect (like untreated control) • 100%=total destruction

Amaranthus [2] = experiment: Pre-emergence test/greenhouse; type: in vivo; details: after three weeks, vs untreated control
Description: as §1, §2, §3, §4

Sinapis = experiment: Pre-emergence test/greenhouse; type: in vivo; details: 250 g of ai/ha, after three weeks, vs untreated control
Description: as §1, §2, §3, §4

Abutilon [3] = experiment: Pre-emergence test/greenhouse; type: in vivo; details: 250 g of ai/ha, after three weeks, vs untreated control
Description: as §1, §2, §3, §4

Alopecurus [4] = experiment: Pre-emergence test/greenhouse; type: in vivo; details: after three weeks, vs untreated control
Description: as §1, §2, §3, §4

Wheat = experiment: Post-emergence test/greenhouse; type: in vivo; details: 125 g of ai/ha, after three weeks, vs untreated control
Description: (§5) To produce a suitable preparation of active compound, one part by weight of active compound is mixed with the stated amount of solvent, the stated amount of emulsifier is added and the concentrate is diluted with water to the desired concentration.
(§6) Test plants which have a height of 5–15 cm are sprayed with the preparation of active compound such that the particular amounts of active compound desired are applied per unit area. The concentration of the spray liquor is chosen so that the particular amounts of active compound desired are applied in 1000 l of water/ha.
as §3, §4

Setaria = experiment: Post-emergence test/greenhouse; type: in vivo; details: Table B4, post-emergence, 125 g of ai/ha, after three weeks, vs untreated control
Description: as §5, §6, §3, §4

Chenopodium [5] = experiment: Post-emergence test/greenhouse; type: in vivo; details: Table B4, post-emergence, 125 g of ai/ha, after three weeks, vs untreated control
Description: as §5, §6, §3, §4

Matricaria [6] = experiment: Post-emergence test/greenhouse; type: in vivo; details: 125 g of ai/ha, after three weeks, vs untreated control
Description: as §5, §6, §3, §4

Ipomoea = experiment: Post-emergence test/greenhouse; type: in vivo; details: Table B4, post-emergence, 125 g of ai/ha, after three weeks, vs untreated control
Description: as §5, §6, §3, §4

weeds [7] = experiment: Post-emergence test, activity against weeds; type: in vivo
Description: as §5, §6, §3, §4

Maize = experiment: Pre-emergence test/greenhouse; type: in vivo; details: after three weeks, vs untreated control
Description: as §1, §2, §3, §4

Chenopodium [8] = experiment: Pre-emergence test/greenhouse; type: in vivo; details: 125 g of ai/ha, after three weeks, vs untreated control
Description: as §1, §2, §3, §4

Matricaria [9] = experiment: Pre-emergence test/greenhouse; type: in vivo; details: after three weeks, vs untreated control
Description: as §1, §2, §3, §4

Cyperus = experiment: Pre-emergence test/greenhouse; type: in vivo; details: after three weeks, vs untreated control
Description: as §1, §2, §3, §4

Viola [10] = experiment: Pre-emergence test/greenhouse; type: in vivo; details: after three weeks, vs untreated control
Description: as §1, §2, §3, §4

Echinochloa = experiment: Post-emergence test/greenhouse; type: in vivo; details: 15 g of ai/ha, after three weeks, vs untreated control
Description: as §5, §6, §3, §4

Abutilon [11] = experiment: Post-emergence test/greenhouse; type: in vivo; details: after three weeks, vs untreated control
Description: as §5, §6, §3, §4

Alopecurus [12] = experiment: Post-emergence test/greenhouse; type: in vivo; details: after three weeks, vs untreated control
Description: as §5, §6, §3, §4

Lolium = experiment: Post-emergence test/greenhouse; type: in vivo; details: 15 g of ai/ha, after three weeks, vs untreated control
Description: as §5, §6, §3, §4

Stellaria [13] = experiment: Post-emergence test/greenhouse; type: in vivo; details: after three weeks, vs untreated control
Description: as §5, §6, §3, §4

Veronica [14] = experiment: Post-emergence test/greenhouse; type: in vivo; details: 15 g of ai/ha, after three weeks, vs untreated control
Description: as §5, §6, §3, §4

Viola [15] = experiment: Post-emergence test/greenhouse; type: in vivo; details: after three weeks, vs untreated control
Description: as §5, §6, §3, §4

Stellaria [16] = experiment: Pre-emergence test/greenhouse; type: in vivo; details: after three weeks, vs untreated control
Description: as §1, §2, §3, §4

Veronica [17] = experiment: Pre-emergence test/greenhouse; type: in vivo; details: 4 g of ai/ha, after three weeks, vs untreated control
Description: as §1, §2, §3, §4

Soya = experiment: Pre-emergence test/greenhouse; type: in vivo; details: 4 g of ai/ha, after three weeks, vs untreated control
Description: as §1, §2, §3, §4

Amaranthus [18] = experiment: Post-emergence test/greenhouse; type: in vivo; details: after three weeks, vs untreated control
Description: as §5, §6, §3, §4

Xanthium = experiment: Post-emergence test/greenhouse; type: in vivo; details: Table B3, post-emergence, 125 g of ai/ha, after three weeks, vs untreated control
Description: as §5, §6, §3, §4

Barley = experiment: Post-emergence test/greenhouse; type: in vivo; details: 4 g of ai/ha, after three weeks, vs untreated control
Description: as §5, §6, §3, §4

Cotton = experiment: Pre-emergence test/greenhouse; type: in vivo; details: 15 g of ai/ha, after three weeks, vs untreated control
Description: as §1, §2, §3, §4

[19] = Table A4, pre-emergence, 250 g of ai/ha
[20] = Table A5, pre-emergence, 250 g of ai/ha
[21] = Table B3, post-emergence, 125 g of ai/ha
[22] = Table A6, pre-emergence, 250 g of ai/ha

SMILES: CCCc1scc(C(=O)OCC)c1NS(=O)(=O)NC(=O)Nc1nc(OC)cc(OC)n1 [Example 3]
activity against weeds (weeds [1]): very strong activity
degree of damage to the plants, Amaranthus (Amaranthus [2]; [19]): 90%
degree of damage to the plants, Sinapis (Sinapis; Table A4, pre-emergence): 90%
degree of damage to the plants, Abutilon (Abutilon [3]; Table A4, pre-emergence): 80%
degree of damage to the plants, Alopecurus (Alopecurus [4]; [19]): 70%

SMILES: CCc1scc(C(=O)OC)c1NS(=O)(=O)NC(=O)Nc1nc(OC)cc(OC)n1 [Example 5]
degree of damage to the plants, Wheat (Wheat; Table B4, post-emergence): 20%
degree of damage to the plants, Setaria (Setaria): 90%
degree of damage to the plants, Chenopodium (Chenopodium [5]): 100%
degree of damage to the plants, Matricaria (Matricaria [6]; Table B4, post-emergence): 100%
degree of damage to the plants, Ipomoea (Ipomoea): 100%
activity against weeds (weeds [1]): very strong activity
activity against weeds (weeds [7]): very strong activity
degree of damage to the plants, Maize (Maize; pre-emergence, 125 g of ai/ha): 20%
degree of damage to the plants, Chenopodium (Chenopodium [8]): 95%
degree of damage to the plants, Matricaria (Matricaria [9]; 125 g of ai/ha): 100%
degree of damage to the plants, Cyperus (Cyperus; pre-emergence, 125 g of ai/ha): 95%
degree of damage to the plants, Viola (Viola [10]; 125 g of ai/ha): 95%

SMILES: CCOC(=O)c1csc(C(C)C)c1NS(=O)(=O)NC(=O)Nc1nc(OC)cc(OC)n1 [Example 4]
activity against weeds (weeds [1]): very strong activity
degree of damage to the plants, Amaranthus (Amaranthus [2]; [20]): 90%
degree of damage to the plants, Sinapis (Sinapis; Table A5, pre-emergence): 90%
degree of damage to the plants, Abutilon (Abutilon [3]; Table A5, pre-emergence): 95%
degree of damage to the plants, Alopecurus (Alopecurus [4]; [20]): 100%
degree of damage to the plants, Cyperus (Cyperus; [20]): 90%

melting point: 195 °C
SMILES: COC(=O)c1csc(C)c1S(=O)(=O)NC(=O)Nc1nc(C)nc(OC)n1 [Example 1, N-(4-methoxy-6-methyl-1,3,5-triazin-2-yl)-N′-(4-methoxycarbonyl-2-methyl-thien-3-yl-sulphonyl)-urea]
degree of damage to the plants, Echinochloa (Echinochloa): 100%
degree of damage to the plants, Abutilon (Abutilon [11]; 15 g of ai/ha): 100%
degree of damage to the plants, Alopecurus (Alopecurus [12]; 15 g of ai/ha): 100%
degree of damage to the plants, Lolium (Lolium): 100%
degree of damage to the plants, Stellaria (Stellaria [13]; 15 g of ai/ha): 100%
degree of damage to the plants, Veronica (Veronica [14]): 100%
degree of damage to the plants, Viola (Viola [15]; post-emergence, 15 g of ai/ha): 100%
activity against weeds (weeds [1]): very strong activity
activity against weeds (weeds [7]): very strong activity
degree of damage to the plants, Stellaria (Stellaria [16]; 4 g of ai/ha): 95%
degree of damage to the plants, Veronica (Veronica [17]): 95%
degree of damage to the plants, Matricaria (Matricaria [9]; 4 g of ai/ha): 95%
degree of damage to the plants, Soya (Soya): 10%
degree of damage to the plants, Viola (Viola [10]; 4 g of ai/ha): 100%

melting point: 174 °C
SMILES: COC(=O)c1csc(C)c1NS(=O)(=O)NC(=O)Nc1nc(OC)cc(OC)n1 [Example 2, N-(4,6-dimethoxy-pyrimidin-2-yl)-N′-(4-methoxycarbonyl-2-methyl-thien-3-yl-amino-sulphonyl)-urea]
degree of damage to the plants, Amaranthus (Amaranthus [18]; [21]): 100%
degree of damage to the plants, Wheat (Wheat; Table B3, post-emergence): 0%
degree of damage to the plants, Xanthium (Xanthium): 95%
degree of damage to the plants, Matricaria (Matricaria [6]; Table B3, post-emergence): 100%
degree of damage to the plants, Viola (Viola [15]; [21]): 100%
activity against weeds (weeds [1]): very strong activity
activity against weeds (weeds [7]): very strong activity
degree of damage to the plants, Amaranthus (Amaranthus [2]; [22]): 95%
degree of damage to the plants, Sinapis (Sinapis; Table A6, pre-emergence): 95%
degree of damage to the plants, Maize (Maize; [22]): 20%
degree of damage to the plants, Abutilon (Abutilon [3]; Table A6, pre-emergence): 90%
degree of damage to the plants, Cyperus (Cyperus; [22]): 95%

SMILES: COC(=O)c1csc(C)c1S(=O)(=O)NC(=O)Nc1nc(OC)cc(OC)n1 [Example 6]
degree of damage to the plants, Amaranthus (Amaranthus [18]; post-emergence, 4 g of ai/ha): 100%
degree of damage to the plants, Abutilon (Abutilon [11]; 4 g of ai/ha): 100%
degree of damage to the plants, Barley (Barley): 20%
degree of damage to the plants, Alopecurus (Alopecurus [12]; 4 g of ai/ha): 90%
degree of damage to the plants, Stellaria (Stellaria [13]; 4 g of ai/ha): 95%
activity against weeds (weeds [1]): very strong activity
activity against weeds (weeds [7]): very strong activity
degree of damage to the plants, Amaranthus (Amaranthus [2]; pre-emergence, 15 g of ai/ha): 90%
degree of damage to the plants, Alopecurus (Alopecurus [4]; pre-emergence, 15 g of ai/ha): 80%
degree of damage to the plants, Stellaria (Stellaria [16]; 15 g of ai/ha): 90%
degree of damage to the plants, Cotton (Cotton): 0%
degree of damage to the plants, Viola (Viola [10]; 15 g of ai/ha): 100%
